Measurements from patent US7776826B2, “Method for fostering bone formation and preservation” (Unigene Laboratories, Inc., priority 2004, dated 2010).

What was measured:
[1] = system: Male Sprague-Dawley rats; assay: Serum osteocalcin concentration on day of sacrifice, Groups A-J; type: in vivo, rat; conditions: bmx rats; for serum osteocalcin level, in words: up to 21 days; for Osteocalcin mean: serum
Source text: FIG. 5 provides a series of measurements of the serum osteocalcin concentration (in ng/ml) in the blood of the rats which are the subjects of FIGS. 3-4 on the day of sacrifice. The meaning of the abbreviations is the same as that in FIGS. 3-4;
FIG. 5 provides a graphical representation of the osteocalcin levels determined, at the time of sacrifice, in the serum of rats subjected to the following treatment modalities: bmx+PBS; bmx+ parathyroid hormone (PTH[1-34]-NH2); bmx+salmon calcitonin (CT); and bmx+ parathyroid hormone (PTH[1-34]-NH2)+CT. It is well known by those of ordinary skill in this art that osteocalcin is a biochemical marker related to the number of osteoblasts, i.e, a measure of new bone growth, which may be measured in the blood serum of the animal. […] That is, administering CT reduces the rate of bone turn-over.
Table 4 additionally provides the standard deviations for the values obtained during each of the indicated analyses, which standard deviations are also indicated in FIG. 5.
On the day of sacrifice, each rat was euthanized in a CO2 chamber. The rat's blood was then collected via a cardiac puncture. The femurs were removed and fixed in a 4% formalin solution, after which they were dehydrated in a graded series of ethanol solutions.
The bones were thereafter subjected to a variety of sample analysis techniques. These included X-ray analysis wherein the femurs were X-rayed in individually sealed plastic bags; PIXIMUS analysis using a Lunar PIXIMUS scanner to measure bone mineral density in the bone marrow cavity of the femurs; MicroCT analysis; and blood analysis for osteocalcin, PTH, CT, NTX and growth factors.

[2] = system: Male Sprague-Dawley rats; assay: pQCT analysis of left (ablated) and right (non-ablated) femoral shafts, Groups A-J; type: in vivo, rat; conditions: for Left femoral shaft Total density mean / Left femoral shaft Trabecular density mean: ablated femur; for new trabecular bone formation in left femoral shaft, in words: bmx, pQCT; for Right femoral shaft Total density mean / Right femoral shaft Trabecular density mean: non-ablated femur (bmx on contralateral left femur)
Source text: FIG. 4 (a-d) are graphical representations of the results of Peripheral Quantitative Computerized Tomography (PQCT) analyses of, respectively, the left (ablated) and right (non-ablated) femoral shafts of the rats which are the subject of FIG. 3 above. FIGS. 4(a) and 4(b) illustrate the trabecular bone density observed in respectively, the left and right femoral shafts of these rats, whereas, FIGS. 4(c) and 4(d) illustrate the total bone density of the respective shafts. The meanings of the abbreviations used in FIGS. 4a-4d are identical to those described above with regard to FIG. 3 (a-e);
All of the data presented above are based on analyses carried out solely of the distal epiphysis portion of the rat femurs. Subsequently, however, to avoid the above-described drawbacks associated with reading the bone density at the level of the epiphysis, the inventors undertook to further analyze the remaining portions of the animals' femur bones and particularly, areas along the length of the cortical shaft. […] In the discussion which follows, directed to the results of these additional analyses, the reader is reminded that the bone marrow ablation (bmx) technique was practiced, in all cases, only on the left femur of the test animals. That is to say, there was no ablation of the marrow portion in the right femur. Thus, in the right femur views discussed below, wherein the illustration or graph relating to the right femur is labeled with the abbreviation “bmx”, etc. to describe the modality of treatment which the rat was subjected to, one should understand such labeling to mean that the view is of a right femur, or is of a graph which presents a value obtained pursuant to the analysis of such right femur, wherein the animal's corresponding left femur underwent a bone marrow ablation treatment in the manner described herein.
FIG. 4 (a-d) graphically illustrate the formation of both trabecular bone and, to some extent, total bone, within the left femoral shaft in rats from the Groups described in Tables 1 and/or 2 above, wherein the left femur was subjected to a bmx (bone marrow ablation) treatment coupled with a concurrent and/or subsequent administration of one or more bone anabolic agents, including parathyroid hormone (PTH[1-34]-NH2) and one or more anti-resorptive agents such as salmon calcitonin. […] The effects of these last two combinations protects the significant initial bone formation induced by bmx, but not to the same extent as parathyroid hormone (PTH[1-34]-NH2) alone.
FIGS. 4(b) and 4(d) are provided to illustrate the results obtained with the same animals' corresponding right femoral shafts, i.e, in which bone marrow ablation (bmx) was not performed. Little or no new bone formation was observed, i.e, the density remained substantially constant, since the only treatment received by the right femurs was due to the systemic administration of the bone anabolic agent. The agent(s) was administered for too short a period to have, by itself, any real positive effect on the bone density. In fact, the total bone density curve for the right femoral shaft presents a substantially straight line, which is attributable to the fact that the total density measurement includes a measurement of cortical bone. Furthermore, since the anabolic agent was not administered for a period sufficient to increase cortical bone density, the total density remained unchanged.
The table additionally includes the standard deviations (“sd”) for the values obtained for each analysis, which standard deviations are also indicated in FIG. 4 (a-d).
The results set forth in FIGS. 1, 2, 4, 5, 11 and 12 and the corresponding Tables, Nos. 1, 2, 3, 4, 5 and 6 discussed above were obtained with the use of a method for mechanically inducing increased osteoblast activity as illustrated in FIGS. 14A-14D. […]

| Substance | serum osteocalcin level, in words [1] | Osteocalcin mean ([1]; Day 0) [ng/mL] | Osteocalcin mean ([1]; Day 7) [ng/mL] | Osteocalcin mean ([1]; Day 14) [ng/mL] | Osteocalcin mean ([1]; Day 21) [ng/mL] | Left femoral shaft Total density mean ([2]; Day 0) [mg/mL] | Left femoral shaft Trabecular density mean ([2]; Day 0) [mg/mL] | Left femoral shaft Total density mean ([2]; Day 7) [mg/mL] | Left femoral shaft Trabecular density mean ([2]; Day 7) [mg/mL] | Left femoral shaft Total density mean ([2]; Day 14) [mg/mL] | Left femoral shaft Trabecular density mean ([2]; Day 14) [mg/mL] | Left femoral shaft Total density mean ([2]; Day 21) [mg/mL] | Left femoral shaft Trabecular density mean ([2]; Day 21) [mg/mL] | new trabecular bone formation in left femoral shaft, in words [2] | Right femoral shaft Total density mean ([2]; Day 0) [mg/mL] | Right femoral shaft Trabecular density mean ([2]; Day 0) [mg/mL] | Right femoral shaft Total density mean ([2]; Day 7) [mg/mL] | Right femoral shaft Trabecular density mean ([2]; Day 7) [mg/mL] | Right femoral shaft Total density mean ([2]; Day 14) [mg/mL] | Right femoral shaft Trabecular density mean ([2]; Day 14) [mg/mL] | further results |
| --- | --- | --- | --- | --- | --- | --- | --- | --- | --- | --- | --- | --- | --- | --- | --- | --- | --- | --- | --- | --- | --- |
| salmon calcitonin [CT, reference compound] | relatively steady state value of osteocalcin | 108.2 | 100.5 | 101 | 69.5 | 726.1 | 21.4 | 833.6 | 232.2 | 876.2 | 257 | 833.2 | 163.5 | Beneficial results | 787.2 | 12.9 | 797.4 | 1.2 | 821.9 | 10.9 | Right femoral shaft Total density mean ([2]; Day 21): 821.3 mg/mL; Right femoral shaft Trabecular density mean ([2]; Day 21): 10.8 mg/mL |
| PTH[1-34]-NH2 | highest and most consistent level of osteocalcin | 108.2 | 125.5 | 125.4 | 117.8 | 726.1 | 21.4 | 867.5 | 243.8 | 968.7 | 465.4 | 1046.7 | 511.2 | greatest formation of new trabecular bone | 787.2 | 12.9 | 848.2 | 1.5 | 871 | 13.7 | Right femoral shaft Total density mean ([2]; Day 21): 864.8 mg/mL; Right femoral shaft Trabecular density mean ([2]; Day 21): 10.7 mg/mL |
